# Experimental data reported in patent publication US20240109885A1, “2,3-DIHYDRO-1H-PYRROLO[3,2-B]PYRIDINE DERIVATIVE, PREPARATION METHOD THEREFOR, AND APPLICATION THEREOF” (Abbisko Therapeutics Co., Ltd, priority 2020, published 2024).
# Assays:
# [1] = target: Ba/F3 EGFR-D770-N771ins_SVD (Homo sapiens, UniProt P00533, DUP768-770, cells depend on it); test: Cell proliferation assay (CellTiter-Glo), Ba/F3 EGFR-D770-N771ins_SVD cells; type: cell-based; conditions: 72 hrs, CTG assay, * = average of multiple measurements, read-out: Ba/F3 EGFR-D770-N771ins_SVD (nM), IC50 of cell proliferation
# Description: (§1) I. Cell proliferation assay (i) Reagents and consumables • Fetal bovine serum (FBS) (GBICO, Cat #10099-141); • CellTiter-Glo® Luminescent Cell Viability Assay Kit (Promega, Cat #G7572); • Black transparent flat-bottomed 96-well plate (Corning®, Cat #3603).
# (§2) • SpectraMax Multi-Label Microplate Detector MD, 2104-0010A; • CO2 incubator, Thermo Scientific 3100 Series; • Biosafety cabinet, Thermo Scientific, 1300 Series type A2; • Inverted microscope, Olympus, CKX41SF; • Siemens refrigerator KK25E76TI. (iii) Cell lines and culture conditions
# (§3) (iv) Experimental procedures 1. Cell culture and seeding: • (1) Cells in the logarithmic growth phase were harvested, and counted using a platelet counter. Cell viability was detected by the trypan blue exclusion assay to ensure that the cell viability was above 90%. • (2) The cell concentration was adjusted to achieve the final density; and 90 μL of the cell suspension was added to the 96-well plate. • (3) The cells were incubated in the 96-well plate overnight at 37° C. in the presence of 5% CO2 with 95% humidity. 2. TO benchmark data: • (1) 10 μL of PBS was added to each well of the TO flat plate containing the cells. • (2) The CTG reagent was thawed, and the cell plate was equilibrated to room temperature for 30 min. • (3) An equal volume of CTG solution was added to each well. • (4) The cells were shaken for 5 min on an orbital shaker for lysis. • (5) The cell plate was left at room temperature for 20 min to stabilize luminescent signals. • (6) The values of TO luminescent signals were read. 3. Compound dilution and addition • (1) According to the compound information table, a corresponding volume of DMSO was added to the corresponding compound powder to prepare a 10 mM stock solution. • (2) Compound solutions diluted at 1000 fold and 3.16 fold were prepared. • (3) The compound solution diluted at 1000 fold was diluted at 100 fold with PBS, to prepare the compound solutions at 10 fold in 9 concentrations, with the maximum concentration of […]; and the compound solution was diluted at 3.16 fold. 10 μL of medicament solution was added to each well of the seeded 96-well plate. Three replicate wells were provided for each concentration of the compound, and the final concentration of DMSO was 0.1%. • (4) Cells were placed in the 96-well plate containing the medicament and subsequently cultured for 72 hrs at 37° C. in the presence of 5% CO2 with 95% humidity, and then, CTG assay was conducted. 4. Reading of luminescent signals • (1) The CTG reagent was thawed, and the cell plate was equilibrated to room temperature for 30 min. • (2) An equal volume of CTG solution was added to each well. • (3) The cells were shaken for 5 min on an orbital shaker for lysis.
# (§4) (4) The cell plate was left at room temperature for 20 min to stabilize the luminescent signals. • (5) Luminescent values were read. Data processing
# (§5) The data were analyzed using software GraphPad Prism 7.0, and fitted by the nonlinear S-curve regression to obtain a dose-effect curve, based on which the IC50 value (unit: nM) was calculated, with the specific test results shown in Table 1.
# (§6) Cell viability (%)=(Lum test medicament-Lum culture medium control)/(Lum cell control-Lum culture medium control)×100%.
# [2] = target: Ba/F3 EGFR-V769_D770insASV (Homo sapiens, UniProt P00533, DUP767-769, cells depend on it); test: Cell proliferation assay (CellTiter-Glo), Ba/F3 EGFR-V769_D770insASV cells; type: cell-based; conditions: 72 hrs, CTG assay, * = average of multiple measurements, read-out: Ba/F3 EGFR-V769_D770insASV (nM), IC50 of cell proliferation
# Description: as §1, §2, §3, §4, §5, §6
# Sequence of Ba/F3 EGFR-D770-N771ins_SVD (P00533 with tags, fused parts or gaps DUP768-770): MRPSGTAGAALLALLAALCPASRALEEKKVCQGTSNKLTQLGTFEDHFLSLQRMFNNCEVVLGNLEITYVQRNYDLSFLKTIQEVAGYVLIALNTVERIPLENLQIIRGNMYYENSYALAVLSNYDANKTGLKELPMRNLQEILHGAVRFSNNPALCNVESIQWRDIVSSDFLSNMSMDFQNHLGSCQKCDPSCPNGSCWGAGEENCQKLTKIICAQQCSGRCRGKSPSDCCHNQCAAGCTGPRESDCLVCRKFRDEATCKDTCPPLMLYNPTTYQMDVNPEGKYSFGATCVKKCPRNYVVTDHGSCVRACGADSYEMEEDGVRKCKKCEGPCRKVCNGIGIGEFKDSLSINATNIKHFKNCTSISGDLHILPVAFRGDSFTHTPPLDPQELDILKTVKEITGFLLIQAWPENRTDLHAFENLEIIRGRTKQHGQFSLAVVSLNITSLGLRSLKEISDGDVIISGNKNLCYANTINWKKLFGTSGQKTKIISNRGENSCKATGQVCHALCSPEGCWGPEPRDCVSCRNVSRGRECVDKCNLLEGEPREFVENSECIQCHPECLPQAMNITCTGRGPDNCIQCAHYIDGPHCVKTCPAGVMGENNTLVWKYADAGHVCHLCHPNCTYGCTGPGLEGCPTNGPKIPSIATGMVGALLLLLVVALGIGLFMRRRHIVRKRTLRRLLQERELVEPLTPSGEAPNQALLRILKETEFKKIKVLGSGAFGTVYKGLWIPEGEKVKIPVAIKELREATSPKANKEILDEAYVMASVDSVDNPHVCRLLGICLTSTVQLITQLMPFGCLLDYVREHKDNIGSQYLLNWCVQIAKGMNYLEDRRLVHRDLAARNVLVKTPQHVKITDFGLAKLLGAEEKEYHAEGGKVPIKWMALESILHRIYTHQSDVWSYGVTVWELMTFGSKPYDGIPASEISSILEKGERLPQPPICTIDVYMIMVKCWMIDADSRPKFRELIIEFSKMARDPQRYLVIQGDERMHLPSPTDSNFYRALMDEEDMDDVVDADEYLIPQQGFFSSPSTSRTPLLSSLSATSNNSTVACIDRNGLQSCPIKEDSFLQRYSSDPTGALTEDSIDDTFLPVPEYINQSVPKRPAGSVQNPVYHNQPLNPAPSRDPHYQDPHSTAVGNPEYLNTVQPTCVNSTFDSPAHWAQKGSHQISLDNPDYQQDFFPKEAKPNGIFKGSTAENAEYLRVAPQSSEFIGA
# Sequence of Ba/F3 EGFR-V769_D770insASV (P00533 with tags, fused parts or gaps DUP767-769): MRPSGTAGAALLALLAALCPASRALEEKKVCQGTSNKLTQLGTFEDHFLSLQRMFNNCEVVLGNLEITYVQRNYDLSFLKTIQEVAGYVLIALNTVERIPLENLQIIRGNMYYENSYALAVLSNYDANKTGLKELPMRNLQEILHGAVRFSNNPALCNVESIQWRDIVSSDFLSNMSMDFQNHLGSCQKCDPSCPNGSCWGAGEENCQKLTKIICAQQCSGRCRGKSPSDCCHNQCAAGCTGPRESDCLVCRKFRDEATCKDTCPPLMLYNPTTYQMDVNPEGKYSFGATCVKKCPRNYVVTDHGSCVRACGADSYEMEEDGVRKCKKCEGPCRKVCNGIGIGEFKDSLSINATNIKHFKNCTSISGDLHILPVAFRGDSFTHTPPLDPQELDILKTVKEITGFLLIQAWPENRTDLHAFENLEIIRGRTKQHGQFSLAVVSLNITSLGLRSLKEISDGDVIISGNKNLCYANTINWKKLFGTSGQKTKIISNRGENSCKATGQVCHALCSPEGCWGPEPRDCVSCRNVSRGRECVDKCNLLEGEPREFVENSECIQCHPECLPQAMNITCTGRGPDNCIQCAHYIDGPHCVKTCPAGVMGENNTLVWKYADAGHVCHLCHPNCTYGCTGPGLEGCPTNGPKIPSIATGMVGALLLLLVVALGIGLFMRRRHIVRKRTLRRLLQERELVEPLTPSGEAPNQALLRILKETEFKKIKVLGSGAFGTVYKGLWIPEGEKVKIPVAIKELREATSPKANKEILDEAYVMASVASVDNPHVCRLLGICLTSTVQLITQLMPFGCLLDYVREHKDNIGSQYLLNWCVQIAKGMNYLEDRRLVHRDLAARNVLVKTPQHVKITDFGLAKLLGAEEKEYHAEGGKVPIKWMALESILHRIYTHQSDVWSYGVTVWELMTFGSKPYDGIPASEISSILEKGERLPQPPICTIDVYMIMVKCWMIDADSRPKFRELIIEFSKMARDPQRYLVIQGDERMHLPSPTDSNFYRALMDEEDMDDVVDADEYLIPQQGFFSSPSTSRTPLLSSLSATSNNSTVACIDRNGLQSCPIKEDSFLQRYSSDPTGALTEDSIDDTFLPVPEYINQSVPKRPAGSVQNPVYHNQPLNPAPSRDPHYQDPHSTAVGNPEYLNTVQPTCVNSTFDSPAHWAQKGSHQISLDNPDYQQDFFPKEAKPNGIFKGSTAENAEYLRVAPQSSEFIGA
SMILES,GI50 [1] [nM],GI50 [2] [nM]
"COc1cc(N(C)CCN(C)C)c(N)cc1Nc1nccc(N2CC(C)(C)c3ncc(-c4c(F)cccc4F)cc32)n1 [Example 18, N^4-(4-(6-(2,6-difluorophenyl)-3,3-dimethyl-2,3-dihydro-1H-pyrrolo [3,2-b]pyridin-1-yl)pyrimidin-2-yl)-N^1-(2-(dimethylamino)ethyl)-5-methoxy-N^1-methylbenzene-1,2,4-triamine]",60,142
"C=CC(=O)Nc1cc(Nc2cc(N3CC(C)(C)c4nc(C5CC5)ccc43)ncn2)c(OC)nc1N(C)CCN(C)C [Example 70, N-(5-((6-(5-cyclopropyl-3,3-dimethyl-2,3-dihydro-1H-pyrrolo[3,2-b]pyridin-1-yl)pyrimidin-4-yl)amino)-2-((2-(dimethylamino)ethyl) (methyl)amino)-6-methoxypyridin-3-yl)acrylamide]",121,–
"C=CC(=O)Nc1cc(Nc2nccc(N3CC(C)(C)c4nc(-c5cn[nH]c5)ccc43)n2)c(OC)cc1N(C)CCN(C)C [Example 58, N-(5-((4-(3,3-dimethyl-5-(1H-pyrazol-4-yl)-2,3-dihydro-1H-pyrrolo[3,2-b]pyridin-1-yl)pyrimidin-2-yl)amino)-2-((2-(dimethylamino)ethyl)(methyl)amino)-4-methoxyphenyl)acrylamide]",68.2,–
"C=CC(=O)Nc1cc(Nc2nccc(N3CC(C)(C)c4ncc(-c5ccccc5F)cc43)n2)c(OC)cc1N(C)CCN(C)C [Example 19, N-(2-((2-(dimethylamino)ethyl) (methyl)amino)-5-((4-(6-(2-fluoro-phenyl)-3,3-dimethyl-2,3-dihydro-1H-pyrrolo[3,2-b]pyridin-1-yl)pyrimidin-2-yl)amino)-4-methoxy-phenyl)acrylamide]",41.6,142
"C=CC(=O)Nc1cc(Nc2cc(N3CC(C)(C)c4nc5c(cc43)CCC5)ncn2)c(OC)cc1N(C)CCN(C)C [Example 26, N-(5-((6-(3,3-dimethyl-3,5,6,7-tetrahydrocyclopenta[b]pyrrolo[2,3-e]pyridin-1(2H)-yl)pyrimidin-4-yl)amino)-2-((2-(dimethylamino)ethyl)(methyl)amino)-4-methoxy-phenyl)acrylamide]",22.9,76.1
"C=CC(=O)Nc1cc(Nc2nccc(N3CC(C)(C)c4nc5c(cc43)CCC5)n2)c(OC)cc1N(C)CCN(C)C [Example 23, N-(5-((4-(3,3-dimethyl-3,5,6,7-tetrahydrocyclopenta[b]pyrrolo[2,3-e]pyridin-1(2H)-yl)pyrimidin-2-yl)amino)-2-((2-(dimethylamino)ethyl)(methyl)amino)-4-methoxy-phenyl)acrylamide]",13.8,26.6
"C=CC(=O)Nc1cc(Nc2nccc(N3CC(C)(C)c4nc(C)ccc43)n2)c(OC(C)C)cc1N(C)CCN(C)C [Example 38, N-(2-((2-(dimethylamino)ethyl) (methyl)amino)-4-isopropoxy-5-((4-(3,3,5-trimethyl-2,3-dihydro-1H-pyrrolo[3,2-b]pyridin-1-yl)pyrimidin-2-yl)amino)phenyl)acrylamide]",124,266
"C=CC(=O)Nc1cc(Nc2nccc(N3CC4(CC(F)(F)C4)c4nc(C)ccc43)n2)c(OC)cc1N(C)CCN(C)C [Example 74, N-(5-((4-(3,3-difluoro-5′-methyl-spiro[cyclobutane-1,3′-pyrrolo[3,2-b]pyridin]-1′(2′H)-yl)pyrimidin-2-yl)amino)-2-((2-(dimethylamino)ethyl)(methyl)amino)-4-methoxy-phenyl)acrylamide]",83.6,–
"C=CC(=O)Nc1cc(Nc2cc(N3CC(C)(C)c4nc(-c5cnn(C)c5)ccc43)ncn2)c(OC)cc1N(C)CCN(C)C [Example 66, N-(5-((6-(3,3-dimethyl-5-(1-methyl-1H-pyrazol-4-yl)-2,3-dihydro-1H-pyrrolo[3,2-b]pyridin-1-yl)pyrimidin-4-yl)amino)-2-((2-(dimethylamino)ethyl)(methyl)amino)-4-methoxyphenyl)acrylamide]",89.1,–
"C=CC(=O)Nc1cc(Nc2nccc(N3CC(C)(C)c4nc(C)c(C)cc43)n2)c(OC(C)C)cc1N(C)CCN(C)C [Example 43, N-(2-((2-(dimethylamino)ethyl) (methyl)amino)-4-isopropoxy-5-((4-(3,3,5,6-tetramethyl-2,3-dihydro-1H-pyrrolo[3,2-b]pyridin-1-yl)pyrimidin-2-yl)amino)phenyl)acrylamide]",38.5,–
C=CC(=O)Nc1cc(Nc2nccc(N3CC4(CCCC4)c4nc(C)ccc43)n2)c(OCC(F)(F)F)cc1N(C)CCN(C)C [Example 40],37,–
"C=CC(=O)Nc1cc(Nc2cc(N3CC(C)(C)c4nc(-c5cnn(C)c5)ccc43)ccn2)c(OC)cc1N(C)CCN(C)C [Example 67, N-(5-((4-(3,3-dimethyl-5-(1-methyl-1H-pyrazol-4-yl)-2,3-dihydro-1H-pyrrolo[3,2-b]pyridin-1-yl)pyridin-2-yl)amino)-2-((2-(dimethyl-amino)ethyl)(methyl)amino)-4-methoxyphenyl)acrylamide]",108,–

# Second part, the compound after the results:
GI50 [1] [nM],GI50 [2] [nM],SMILES
811,–,"C=CC(=O)Nc1cc(Nc2nccc(N3CC4(CN(C)C4)c4nc(C)ccc43)n2)c(OC)cc1N(C)CCN(C)C [Example 73, N-(2-((2-(dimethylamino)ethyl) (methyl)amino)-5-((4-(1,5′-dimethyl-spiro[azetidine-3,3′-pyrrolo[3,2-b]pyridin]-1′(2′H)-yl)pyrimidin-2-yl)amino)-4-methoxyphenyl) acrylamide]"
56.5,106,"C=CC(=O)Nc1cc(Nc2ncnc(N3CC(C)(C)c4nc(C)ccc43)n2)c(OCC)cc1N(C)CCN(C)C [Example 25, N-(2-((2-(dimethylamino)ethyl) (methyl)amino)-4-ethoxy-5-((4-(3,3,5-trimethyl-2,3-dihydro-1H-pyrrolo[3,2-b]pyridin-1-yl)-1,3,5-triazin-2-yl)amino)phenyl)acrylamide]"
298,–,"C=CC(=O)Nc1cc(Nc2ncnc(N3CC4(CCN(C)C4)c4nc(C)ccc43)n2)c(OC)cc1N(C)CCN(C)C (centres unmarked) [Example 72, N-(2-((2-(dimethylamino)ethyl) (methyl)amino)-5-((4-(1,5′-dimethyl-spiro[pyrrolidin-3,3′-pyrrolo[3,2-b]pyridin]-1′(2′H)-yl)-1,3,5-triazin-2-yl)amino)-4-methoxyphenyl) acrylamide]"
92.2,159,"C=CC(=O)Nc1cc(Nc2ncnc(N3CC(C)(C)c4nc(C)ccc43)n2)c(OC(C)C)cc1N(C)CCN(C)C [Example 37, N-(2-((2-(dimethylamino)ethyl) (methyl)amino)-4-isopropoxy-5-((4-(3,3,5-trimethyl-2,3-dihydro-1H-pyrrolo[3,2-b]pyridin-1-yl)-1,3,5-triazin-2-yl)amino)phenyl)acrylamide]"
108,–,C=CC(=O)Nc1cc(Nc2nccc(N3CC4(CCOCC4)c4nc(C)ccc43)n2)c(OC)cc1N(C)CCN(C)C [Example 65]
372,–,"C=CC(=O)Nc1cc(Nc2nccc(N3CC4(CCN(C)C4)c4nc(C)ccc43)n2)c(OC)cc1N(C)CCN(C)C (centres unmarked) [Example 71, N-(2-((2-(dimethylamino)ethyl) (methyl)amino)-5-((4-(1,5′-dimethyl-spiro[pyrrolidin-3,3′-pyrrolo[3,2-b]pyridin]-1′(2′H)-yl)pyrimidin-2-yl)amino)-4-methoxyphenyl) acrylamide]"
35.5,–,"C=CC(=O)Nc1cc(Nc2ncnc(N3CC(C)(C)c4nc(Br)ccc43)n2)c(OC)cc1N(C)CCN(C)C [Example 41, N-(5-((4-(5-bromo-3,3-dimethyl-2,3-dihydro-1H-pyrrolo[3,2-b]pyridin-1-yl)-1,3,5-triazin-2-yl)amino)-2-((2-(dimethylamino)ethyl) (methyl)amino)-4-methoxyphenyl) acrylamide]"
